One assay deals with IL-1β. The assay is described as follows: Cytokine secretion into blood circulation in LPS injected mice, IL-1β. Particulars: 2 mg/kg i.v., LPS 3 mg/kg i.p., plasma 90 minutes after LPS. The format is in vivo, Balb/C female mice. As for the experimental part: (§1) Balb/C female mice (average body weight 20 g, Harlan, Israel) were injected i.v. at a volume dosage of 5 ml/kg with either vehicle or test compounds at a dose of 2 mg/kg. Each treatment group comprised at least 9 animals. Immediately after compound or control administration, the mice were injected i.p. with 3 mg/kg LPS (E. coli 055:B5, Calbiochem). Ninety minutes after LPS induction, blood samples were collected into heparanized test tubes. Plasma was separated by centrifugation (10,000 rpm for 5 minutes at RT) and stored at −20° C. until assayed. The level of the inflammatory mediator under study, IL-1β, IL-6, IL-10 or TNF-α, was assayed by ELISA techniques.
(§2) The technique used to quantify the amount of a given protein in a liquid sample, either tissue culture supernatant or body fluid, is based on Enzyme Linked ImmunoSorbent Assay (ELISA) methodology. Either commercially available or established in house, the assay is based on the capture of the protein of interest by specific antibodies bound to the bottom of an ELISA plate well. Unbound material is washed away, the captured protein is then exposed to a secondary antibody generally labeled with horseradish peroxidase (HRP) or alkaline phosphatase (ALP). Again the unbound material is washed away, and the samples are then incubated with the appropriate substrate yielding a colorimetric reaction. The reaction is stopped and reading is performed in a spectrophotometer at the appropriate wavelength. Samples are tested at least in duplicate and the appropriate standard curve, consisting of serial dilutions of the recombinant target protein, is incorporated on each plate. The concentration of the protein in the sample is calculated from the standard curve.
(§3) The results are expressed as percent inhibition of secretion, taking into account the maximal cytokine concentration in vehicle “treated” animals and the baseline level in naïve animals. […] Inhibition above 50% was considered highly significant.

Another assay relates to IL-6. Nature of the assay: Cytokine secretion into blood circulation in LPS injected mice, IL-6. Format: in vivo, Balb/C female mice. The note with it: 2 mg/kg i.v., LPS 3 mg/kg i.p., plasma 90 minutes after LPS. As for the experimental part:
as §1, §2, §3

The next assay relates to IL-10. Nature of the assay: Cytokine secretion into blood circulation in LPS injected mice, IL-10. Format: in vivo, Balb/C female mice. Particulars: 2 mg/kg i.v., LPS 3 mg/kg i.p., plasma 90 minutes after LPS. As for the experimental part:
as §1, §2, §3

For the next assay, the system named is TNF-α. Nature of the assay: Cytokine secretion into blood circulation in LPS injected mice, TNF-α. The note with it: 2 mg/kg i.v., LPS 3 mg/kg i.p., plasma 90 minutes after LPS. Format: in vivo, Balb/C female mice. As for the experimental part:
as §1, §2, §3

Assay [1] concerns carrageenan induced inflammatory pain and paw edema. The assay is described as follows: Inflammatory pain and paw edema induced by carrageenan. The format is in vivo, Male Sprague Dawley rats. The note with it: for inhibition in vivo at 10 mg/kg / inhibition in vivo at 3 mg/kg: Rattus norvegicus, ip; for inhibition in vivo at 3 mg/kg: 3 mg/kg i.p. (one asterisk). A digest of the protocol: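 Male Sprague Dawley rats (~200 g) received 0.1 ml 2% λ-carrageenan subplantar in the right paw; compounds given i.p. at 3, 10 or 20 mg/kg (some p.o.) immediately after. Thermal (Hargreaves) latency, mechanical threshold, paw thickness and volume measured at 0 and 3 h; values are inter-paw differences ([…], ΔForce), volume as % of vehicle.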

Assay [2] concerns visceral pain writhing responses. Nature of the assay: Visceral pain, acetic acid induced writhing responses. The note with it: for Percent Inhibition of Visceral Pain Writhing Responses / inhibition in vivo at 2 mg/kg: single dose 2 mg/kg i.v., compared to untreated group; for inhibition in vivo at 2 mg/kg: Mus musculus, iv, read-out: Percent Inhibition of Visceral Pain Writhing Responses. Format: in vivo, Male ICR mice. Background: In writhing tests, fewer writhes than in controls are read as antinociception.

In assay [3] the test system is oxazolone induced DTH, ear thickness. The assay is described as follows: Oxazolone induced delayed type hypersensitivity. Particulars: for decrease in ΔThickness, inhibition as compared to untreated animals: day one after challenge. Format: in vivo, Male ICR mice. As for the experimental part:
Male ICR mice (average body weight 20-25 g, Harlan, Israel) were anesthetized using a mixture of 35 mg/kg ketamine and 8 mg/kg xylazine. The abdomen of the sedated animals was shaved, and the animals were sensitized by topical application of 2% oxazolone in acetone:sesame oil (4:1 volume per volume), 100 μl to the shaved abdomen and 5 μl to each paw. Five days later, the sensitized mice were anesthetized again and their right ear was challenged with 10 μl of 1% oxazolone. Immediately before this challenge, vehicle (5 ml/kg) or test compounds were administered i.v. Each treatment group comprised at least 5 animals. The ear thickness was measured 24 and 48 hours following challenge using a micrometer. The difference in ear thickness (ΔThickness) between the challenged and non-challenged ear was calculated. The average ΔThickness and SEM were calculated on each day following challenge (baseline) for all treatment groups.

Setting [4] is: 10 mg/kg i.p., 3 hours after carrageenan, reduction in paw swelling, read-out: Percent Inhibition of Inflammatory Pain Responses, Edema.
The mark [5] stands for this setting: 10 mg/kg i.p., 3 hours, mechanical stimulus, read-out: Percent Inhibition of Inflammatory Pain Responses, ΔForce.
The mark [6] stands for this setting: 10 mg/kg i.p., 3 hours, thermal stimulus, read-out: Percent Inhibition of Inflammatory Pain Responses, ΔLT.

Where two headings read alike, the source gives them in different places.

Take `CCCCCCC(C)(C)c1cc(O)c2c(c1)OC1C=CCCC21` (stereo not shown) [Compound C6S-2, 3-(1,1-Dimethylheptyl)-5a,8,9,9a-tetrahydro-dibenzofuran-1-ol]: the “Inhibition of cytokine secretion into blood circulation, IL-1β” value (“Inhibition … IL-1β” for short) in the assay on IL-1β is 56%. Further, the “Inhibition of cytokine secretion into blood circulation, IL-6” value (from here on “Inhibition … IL-6”) in the assay on IL-6 is “NO (NO indicates that the compound tested did not significantly affect the level of cytokine in plasma of LPS injected mice and that its activity is comparable to vehicle, within ±20% from this control)”. In addition, the “Inhibition of cytokine secretion into blood circulation, IL-10” value (“Inhibition … IL-10” for short) with IL-10 is on record as 68%. Moreover, in the assay on TNF-α, the “Inhibition of cytokine secretion into blood circulation, TNF-α” value (from here on “Inhibition … TNF-α”) was “NO (NO indicates that the compound tested did not significantly affect the level of cytokine in plasma of LPS injected mice and that its activity is comparable to vehicle, within ±20% from this control)”. Moreover, the inhibition in vivo at 10 mg/kg was 36% in assay [1] (setting [4]), 30% in assay [1] (setting [5]) and 58% in assay [1] (setting [6]).
As to `CCCCC(C)(C)c1cc(O)c2c(c1)OC1(C)CCCC21` (stereo not drawn) [Compound C5S-1, 6-(1,1-dimethylpentyl)-8a-methyl-2,3,3a,8a-tetrahydro-1H-8-oxa-cyclopenta[α]inden-4-ol], the “Inhibition … IL-1β” value in the assay on IL-1β amounted to 41%. Also, the “Inhibition … IL-6” value with IL-6 was 28%. In addition, the “Inhibition … IL-10” value with IL-10 came out at 75%. Also, the “Inhibition … TNF-α” value in the assay with TNF-α is 77%. Moreover, the “Percent Inhibition of Visceral Pain Writhing Responses” value in assay [2] came to 41%.
Turning to `CCCCC(C)(C)c1cc(O)c2c(c1)OC1C2CCC(C)(C)C1O` (stereo not shown) [Compound C6S-7, 3-(1,1-dimethylpentyl)-7,7-dimethyl-5a,6,7,8,9,9a-hexahydro-dibenzofuran-1,6-diol], the inhibition in vivo at 2 mg/kg in assay [2] turned out to be 40%. Besides, the inhibition in vivo at 10 mg/kg in assay [1] (setting [5]) came to 41%; in assay [1] (setting [6]), 54%.
For the molecule `CCCCCCC(C)(C)c1cc(O)c2c(c1)OC1(C)CCCC21` (stereo not drawn) [Compound C5S-2, 6-(1,1-dimethylheptyl)-8a-methyl-2,3,3a,8a-tetrahydro-1H-8-oxa-cyclo-penta[α]inden-4-ol], the “Inhibition … IL-1β” value in the assay with IL-1β came to 53%. In addition, the “Inhibition … IL-6” value with IL-6 was “NO (NO indicates that the compound tested did not significantly affect the level of cytokine in plasma of LPS injected mice and that its activity is comparable to vehicle, within ±20% from this control)”. The “Inhibition … IL-10” value in the assay on IL-10 is reported as 64%. Moreover, the “Inhibition … TNF-α” value in the assay on TNF-α is reported as 38%. Further, in assay [2], the “Percent Inhibition of Visceral Pain Writhing Responses” value is on record as 72%. The “Percent Inhibition of Inflammatory Pain Responses, Edema” value in assay [1] (10 mg/kg i.p., 3 hours after carrageenan, reduction in paw swelling) was determined as 48%. Further, in assay [1] (10 mg/kg i.p., 3 hours, mechanical stimulus), the “Percent Inhibition of Inflammatory Pain Responses, ΔForce” value is 8%. Also, the “Percent Inhibition of Inflammatory Pain Responses, ΔLT” value in assay [1] (10 mg/kg i.p., 3 hours, thermal stimulus) was determined as 43%.
Regarding `CCCCCCC(C)(C)c1cc(O)c2c3c(oc2c1)C(=O)CCC3(C)C` [Compound C6M-9, 7-(1,1-Dimethylheptyl)-9-hydroxy-1,1-dimethyl-2,3-dihydro-1H-dibenzofuran-4-one], the inhibition in vivo at 2 mg/kg in assay [2] was determined as 38%. In addition, the inhibition in vivo at 10 mg/kg in assay [1] (setting [4]) turned out to be 49%; in assay [1] (setting [5]) it was 27%; in assay [1] (setting [6]) it was 75%.
With `CCCCC(C)(C)c1cc(O)c2c(c1)OC1CCCCC21` (stereo not shown) [Compound C6S-3, 3-(1,1-dimethylpentyl)-5a,6,7,8,9,9a-hexahydro-dibenzofuran-1-ol], in the assay with IL-1β, the “Inhibition … IL-1β” value was “NO (NO indicates that the compound tested did not significantly affect the level of cytokine in plasma of LPS injected mice and that its activity is comparable to vehicle, within ±20% from this control)”. The “Inhibition … IL-6” value with IL-6 was “NO (NO indicates that the compound tested did not significantly affect the level of cytokine in plasma of LPS injected mice and that its activity is comparable to vehicle, within ±20% from this control)”. Moreover, in the assay with IL-10, the “Inhibition … IL-10” value is 79%. The “Inhibition … TNF-α” value in the assay on TNF-α was found to be 78%. Moreover, the inhibition in vivo at 10 mg/kg in assay [1] (setting [4]) is 48%; in assay [1] (setting [5]) it was 49%; in assay [1] (setting [6]), 84%. In addition, in assay [3] (2 mg/kg IV), the “Difference in Ear Thickness, Baseline, Mean” value is given as 3.76 ×10^−2 mm. Moreover, the “Difference in Ear Thickness, Day 1, Mean” value in assay [3] (2 mg/kg IV) is 8.64 ×10^−2 mm. For the same molecule, the “Difference in Ear Thickness, Day 2, Mean” value in assay [3] (2 mg/kg IV) is 5.78 ×10^−2 mm. The “decrease in ΔThickness, inhibition as compared to untreated animals” value in assay [3] (2 mg/kg i.v.) is on record as 25%.
`CCCCCCC(C)(C)c1cc(O)c2c(c1)OC1C(O)CCCCC21` (stereo not drawn) [Compound C7S-2, 2-(1,1-dimethylheptyl)-5,6,7,8,9,9a-hexahydro-4bH-10-oxa-benzo[α]azulen-4,9-diol]: the “inhibition of writhing responses” value came to 28% in assay [2] (0.075 mg/kg i.v., compared to vehicle); 74% in assay [2] (0.1 mg/kg i.v.); 35% in assay [2] (0.25 mg/kg i.m.); 90% in assay [2] (0.5 mg/kg i.m.); 58% in assay [2] (10 mg/kg p.o.); 83% in assay [2] (20 mg/kg p.o.). Besides, the “inhibition of pain responses” value in assay [2] (0.5 mg/kg i.v.) is recorded as “totally eradicated pain responses”. Also, the “inhibition of pain response” value in assay [2] (1 mg/kg i.m.) was “totally abrogated the pain response”. In assay [2] (IC50 in visceral pain, i.v.), the “fold more potent than morphine” value came to 12 fold. Also, the inhibition in vivo at 2 mg/kg in assay [2] was greater than 90%. For the same molecule, the “IC50 in visceral pain” value is on record as “about 0.27 mg/kg” in assay [2] (i.m. administration, calculated); 0.09 mg/kg in assay [2] (i.v., estimated or calculated from dose range); “about 6.6 mg/kg” in assay [2] (p.o. administration, calculated); “about 1 mg/kg” in assay [2] (subcutaneously, estimated). In addition, the figures for the “reduction of paw swelling” value in assay [1] (5 mg/kg p.o.) and in assay [1] (20 mg/kg p.o.) were 41% and 50%, respectively. Moreover, the inhibition in vivo at 3 mg/kg was 66% in assay [1] (3 hours, mechanical stimulus, read-out: Percent Inhibition of Inflammatory Pain Responses, ΔForce); 56% in assay [1] (3 hours, reduction in paw swelling, read-out: Percent Inhibition of Inflammatory Pain Responses, Edema); 66% in assay [1] (3 hours, thermal stimulus, read-out: Percent Inhibition of Inflammatory Pain Responses, ΔLT). The “Difference in Ear Thickness, Baseline, Mean” value in assay [3] (0.5 mg/kg IV) is on record as 3.66 ×10^−2 mm. Further, in assay [3] (0.5 mg/kg IV), the “Difference in Ear Thickness, Day 1, Mean” value is on record as 8.18 ×10^−2 mm. Also, in assay [3] (0.5 mg/kg IV), the “Difference in Ear Thickness, Day 2, Mean” value is recorded as 5.90 ×10^−2 mm. Moreover, in assay [3] (0.5 mg/kg i.v.), the “decrease in ΔThickness, inhibition as compared to untreated animals” value was 29%.

The values above are taken from US20090054376A1, “BENZOFURAN DERIVATIVES WITH THERAPEUTIC ACTIVITIES” (Pharmos Corporation, priority 2005, published 2009).
